From PubChem BioAssay AID296 (DTP/NCI, 2004)
Several values for one entry are separate records, joined by “and”; a condition that tells them apart may be missing. Equal values may be shown once. Results filed as inconclusive are left out. *1 amine or outer side, *2 acyl side, *3 side chain or, on linkers, in order; H or OH if unused. Where a SMILES comes first, the peptide text is derived from it. [ ]: non-standard residue; d: D form. The star is where a group is joined. X2 = CCC(=O)CC1CC(C)CC(C(=O)[*:2])N1[*:1]; X1 = CCCCCCCCC(C)C(=O)*; Aib = CC(C)(N)C(=O)O; X3 = CC(CN(C)CCO)N*

Tested on: MX-1 breast xenograft, nude mice, tumor weight T/C
Test: NCI In Vivo Anticancer Drug Screen. Data for tumor model Human Mammary Carcinoma MX-1 Xenograft (intrarenal inoculation) in NU/NU Swiss (nude) mice
Conditions: endpoint: mean tumor weight change, higher = larger tumour
How it was run: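 Activity is given as a ratio, with each measurement in the compound-treated arm divided by the matching measurement in vehicle-dosed controls. Tumour size or survival serves as the measured parameter.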

[1] = dose: 300.0 mg/kg/injection, schedule: Q04DX003 (sc), vehicle: saline with Tween-80
[2] = dose: 600.0 mg/kg/injection, schedule: Q04DX003 (sc), vehicle: saline with Tween-80
[3] = dose: 1200.0 mg/kg/injection, schedule: Q04DX003 (sc), vehicle: saline with Tween-80
[4] = dose: 2400.0 mg/kg/injection, schedule: Q04DX003 (sc), vehicle: saline with Tween-80
[5] = dose: 6.25 mg/kg/injection, schedule: Q01DX010 (sc), vehicle: saline
[6] = dose: 12.5 mg/kg/injection, schedule: Q01DX010 (sc), vehicle: saline
[7] = dose: 37.5 mg/kg/injection, schedule: Q04DX003 (sc), vehicle: Klucel (hydroxypropylcellulose) (HPC)

OC(C1CO1)C(O)C1CO1 (configuration not stated)
T/C (dose: 1.0 mg/kg/injection, schedule: Q01DX010 (sc), vehicle: saline): 5 % of control and 18 % of control

CCCCCCNc1nc(NCCCCCC)c2[nH]c(NCCCCCC)nc2n1
T/C (dose: 300.0 mg/kg/injection, schedule: Q04DX003 (ip), vehicle: saline with Tween-80): 75 % of control

CCCCCC1c2cc(O)ccc2OC1N1CCOCC1 (configuration not stated)
T/C [1]: 72 % of control
T/C [2]: 71 % of control
T/C [3]: 90 % of control
T/C [4]: 67 % of control

CC(C)[NH-].CC(C)[NH-].[Cl][Pt+2][Cl]
T/C (dose: 300.0 mg/kg/injection, schedule: Q04DX003 (sc), vehicle: dextrose): 35 % of control

O/N=C/c1ccccc1O.O/N=C/c1ccccc1O.[Cu]
T/C [1]: 81 % of control
T/C [2]: 72 % of control
T/C [3]: 60 % of control
T/C [4]: 103 % of control

Cc1c(N)nc([C@H](CC(N)=O)NC[C@H](N)C(N)=O)nc1C(=O)N[C@H](C(=O)N[C@H](C)[C@@H](O)[C@H](C)C(=O)N[C@H](C(=O)NCCc1nc(-c2nc(C(=O)NCCC[S+](C)C)cs2)cs1)[C@@H](C)O)C(OC1OC(CO)C(O)C(O)C1OC1OC(CO)C(O)C(OC(N)=O)C1O)c1cnc[nH]1 (some centres not stated)
T/C (dose: 4.0 mg/kg/injection, schedule: Q01DX010 (ip), vehicle: saline): 86 % of control
T/C (dose: 6.25 mg/kg/injection, schedule: Q04DX003 (sc), vehicle: saline): 93 % of control
T/C (dose: 8.0 mg/kg/injection, schedule: Q01DX010 (ip), vehicle: saline): 55 % of control
T/C (dose: 8.0 mg/kg/injection, schedule: Q04DX003 (sc), vehicle: saline): 87 % of control
T/C (dose: 13.3 mg/kg/injection, schedule: Q04DX003 (sc), vehicle: saline): 67 % of control
T/C (dose: 13.33 mg/kg/injection, schedule: Q04DX003 (ip), vehicle: saline): 101 % of control and 120 % of control
T/C (dose: 13.33 mg/kg/injection, schedule: Q04DX003 (sc), vehicle: saline): 45 % of control
T/C (dose: 16.0 mg/kg/injection, schedule: Q01DX010 (ip), vehicle: saline): 49 % of control
T/C (dose: 16.0 mg/kg/injection, schedule: Q04DX003 (sc), vehicle: saline): 46 % of control
T/C (dose: 25.0 mg/kg/injection, schedule: Q04DX003 (sc), vehicle: saline): 50 % of control
T/C (dose: 26.65 mg/kg/injection, schedule: Q04DX003 (ip), vehicle: saline): 71 % of control
T/C (dose: 26.66 mg/kg/injection, schedule: Q04DX003 (ip), vehicle: saline): 89 % of control
T/C (dose: 32.0 mg/kg/injection, schedule: Q01DX010 (ip), vehicle: saline): 53 % of control
T/C (dose: 32.0 mg/kg/injection, schedule: Q04DX003 (sc), vehicle: saline): 15 % of control
T/C (dose: 37.5 mg/kg/injection, schedule: Q04DX003 (sc), vehicle: saline): 80 % of control
T/C (dose: 50.0 mg/kg/injection, schedule: Q04DX003 (sc), vehicle: saline): 46 % of control
T/C (dose: 53.3 mg/kg/injection, schedule: Q04DX003 (ip), vehicle: saline): 63 % of control
T/C (dose: 53.3 mg/kg/injection, schedule: Q04DX003 (sc), vehicle: saline): 49 % of control
T/C (dose: 53.33 mg/kg/injection, schedule: Q04DX003 (ip), vehicle: saline): 59 % of control
T/C (dose: 53.33 mg/kg/injection, schedule: Q04DX003 (sc), vehicle: saline): 106 % of control
T/C (dose: 75.0 mg/kg/injection, schedule: Q04DX003 (sc), vehicle: saline): 30 % of control
T/C (dose: 106.6 mg/kg/injection, schedule: Q04DX003 (ip), vehicle: saline): 88 % of control
T/C (dose: 106.6 mg/kg/injection, schedule: Q04DX003 (sc), vehicle: saline): 51 % of control
T/C (dose: 106.66 mg/kg/injection, schedule: Q04DX003 (sc), vehicle: saline): 64 % of control
T/C (dose: 150.0 mg/kg/injection, schedule: Q04DX003 (sc), vehicle: saline): 17 % of control

CCCCCCCCC(C)C(=O)N1CCCC1C(=O)N1C(CC(=O)CC)CC(C)CC1C(=O)NC(C)C(=O)NC(C)(C)C(=O)NC(C)(C)C(=O)NC(C(=O)NC(C)C(=O)NC(C)(C)C(=O)NC(C)(C)C(=O)NC(C)CN(C)CCO)C(C)CC (configuration not stated) (X1-P[X2]A[Aib][Aib]IA[Aib][Aib]-X3; configuration not given here)
T/C (dose: 1.25 mg/kg/injection, schedule: Q04DX003 (sc), vehicle: Klucel (hydroxypropylcellulose) (HPC)): 105 % of control
T/C (dose: 2.5 mg/kg/injection, schedule: Q04DX003 (sc), vehicle: Klucel (hydroxypropylcellulose) (HPC)): 113 % of control

O=C1C=C(C2OC(CO)C(O)C2O)C(=O)N1 (configuration not stated)
T/C [5]: 79 % of control
T/C [6]: 123 % of control

CC(=O)Oc1c[nH]c(=O)[nH]c1=O
T/C (dose: 100.0 mg/kg/injection, schedule: Q04DX003 (sc), vehicle: distilled water + Tween-80): 117 % of control
T/C (dose: 400.0 mg/kg/injection, schedule: Q04DX003 (sc), vehicle: distilled water + Tween-80): 97 % of control
T/C (dose: 800.0 mg/kg/injection, schedule: Q04DX003 (sc), vehicle: distilled water + Tween-80): 95 % of control
T/C (dose: 1600.0 mg/kg/injection, schedule: Q04DX003 (sc), vehicle: distilled water + Tween-80): 58 % of control

C/C=C(\C)C(=O)OC1C(C)=C2C(C1OC(=O)CCCCC)C(C)(OC(C)=O)CC(OC(=O)CCC)C1(O)C2OC(=O)C1(C)O (configuration not stated)
T/C (dose: 2.0 mg/kg/injection, schedule: Q04DX003 (ip), vehicle: Klucel (hydroxypropylcellulose) (HPC)): 52 % of control

COc1cc(NCc2ccc3nc(N)nc(N)c3c2C)cc(OC)c1OC
T/C (dose: 1.25 mg/kg/injection, schedule: Q01DX010 (sc), vehicle: sodium bicarbonate): 70 % of control
T/C (dose: 2.5 mg/kg/injection, schedule: Q01DX010 (sc), vehicle: sodium bicarbonate): 46 % of control
T/C (dose: 20.0 mg/kg/injection, schedule: Q01DX010 (sc), vehicle: sodium bicarbonate): 97 % of control
T/C (dose: 75.0 mg/kg/injection, schedule: Q04DX003 (sc), vehicle: water): 115 % of control
T/C (dose: 150.0 mg/kg/injection, schedule: Q04DX003 (sc), vehicle: water): 108 % of control
T/C (dose: 300.0 mg/kg/injection, schedule: Q04DX003 (sc), vehicle: water): 112 % of control

CCC[CH2][Hg][Cl]
T/C (dose: 9.38 mg/kg/injection, schedule: Q04DX003 (sc), vehicle: Klucel (hydroxypropylcellulose) (HPC)): 74 % of control
T/C (dose: 18.75 mg/kg/injection, schedule: Q04DX003 (sc), vehicle: Klucel (hydroxypropylcellulose) (HPC)): 61 % of control
T/C [7]: 46 % of control

CN(C)C(=O)c1cccc(COc2ccc(N3C(N)=NC(N)=NC3(C)C)cc2Cl)c1
T/C [5]: 104 % of control
T/C [6]: 118 % of control
T/C (dose: 25.0 mg/kg/injection, schedule: Q01DX010 (sc), vehicle: saline): 49 % of control

CCOC(=O)c1ccc(NC(=O)Nc2nncs2)cc1
T/C (dose: 50.0 mg/kg/injection, schedule: Q01DX010 (sc), vehicle: distilled water + Tween-80): 44 % of control
T/C (dose: 100.0 mg/kg/injection, schedule: Q01DX010 (sc), vehicle: saline with Tween-80): 65 % of control
T/C (dose: 200.0 mg/kg/injection, schedule: Q01DX010 (sc), vehicle: saline with Tween-80): 62 % of control
T/C (dose: 400.0 mg/kg/injection, schedule: Q01DX010 (sc), vehicle: saline with Tween-80): 65 % of control
T/C (dose: 800.0 mg/kg/injection, schedule: Q01DX010 (sc), vehicle: distilled water + Tween-80): 120 % of control
T/C (dose: 800.0 mg/kg/injection, schedule: Q01DX010 (sc), vehicle: saline with Tween-80): 37 % of control

O=Cc1ccc(O)c(O)c1
T/C [1]: 181 % of control

CCCCCCOC(CN(C)C)C(Cl)(Cl)Cl (configuration not stated)
T/C [1]: 70 % of control
T/C [2]: 69 % of control
T/C [3]: 71 % of control
T/C [4]: 58 % of control

O=C1C=CC(=O)N1c1ccc(Cl)cc1
T/C [7]: 79 % of control
T/C (dose: 75.0 mg/kg/injection, schedule: Q04DX003 (sc), vehicle: Klucel (hydroxypropylcellulose) (HPC)): 91 % of control
T/C (dose: 150.0 mg/kg/injection, schedule: Q04DX003 (sc), vehicle: Klucel (hydroxypropylcellulose) (HPC)): 85 % of control

Clc1ccc(C(c2ccccc2Cl)C(Cl)Cl)cc1 (configuration not stated)
T/C (dose: 1200.0 mg/kg/injection, schedule: Q04DX003 (sc), vehicle: saline): 85 % of control
T/C (dose: 2400.0 mg/kg/injection, schedule: Q04DX003 (sc), vehicle: saline): 98 % of control
T/C (dose: 4800.0 mg/kg/injection, schedule: Q04DX003 (sc), vehicle: saline): 83 % of control
T/C (dose: 9600.0 mg/kg/injection, schedule: Q04DX003 (sc), vehicle: saline): 39 % of control

C=C(OP(=O)(OC)OC)Sc1ccccc1C
T/C (dose: 0.2 mg/kg/injection, schedule: Q04DX003 (sc), vehicle: Klucel (hydroxypropylcellulose) (HPC)): 65 % of control
T/C (dose: 0.4 mg/kg/injection, schedule: Q04DX003 (sc), vehicle: Klucel (hydroxypropylcellulose) (HPC)): 67 % of control
